The values that follow come from US10688093B2, “Methods, compositions, and uses of novel Fyn kinase inhibitors” (priority 2015, dated 2020).

Molecules are shown by their SMILES.

The test deals with full-length recombinant human FYN A (Homo sapiens (Human), UniProt P06241). Briefly: ADP-Glo Kinase Assay of FYN kinase inhibition. The settings on record: primary screen, initial compounds. The test is classed as biochemical. The procedure, abridged: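 GST-tagged full-length FYN A (baculovirus, Sf9) at 3 pg preincubated 30 min RT with compound (10-point 3-fold series from 10 μM) in Tris pH 7.5/MgCl2 buffer. 12-mer tyrosine peptide plus 12.5 pmol ATP added, 90 min RT; ADP measured by ADP-Glo luminescence, IC50 from dose-response.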
full-length recombinant human FYN A, sequence (P06241 whole entry): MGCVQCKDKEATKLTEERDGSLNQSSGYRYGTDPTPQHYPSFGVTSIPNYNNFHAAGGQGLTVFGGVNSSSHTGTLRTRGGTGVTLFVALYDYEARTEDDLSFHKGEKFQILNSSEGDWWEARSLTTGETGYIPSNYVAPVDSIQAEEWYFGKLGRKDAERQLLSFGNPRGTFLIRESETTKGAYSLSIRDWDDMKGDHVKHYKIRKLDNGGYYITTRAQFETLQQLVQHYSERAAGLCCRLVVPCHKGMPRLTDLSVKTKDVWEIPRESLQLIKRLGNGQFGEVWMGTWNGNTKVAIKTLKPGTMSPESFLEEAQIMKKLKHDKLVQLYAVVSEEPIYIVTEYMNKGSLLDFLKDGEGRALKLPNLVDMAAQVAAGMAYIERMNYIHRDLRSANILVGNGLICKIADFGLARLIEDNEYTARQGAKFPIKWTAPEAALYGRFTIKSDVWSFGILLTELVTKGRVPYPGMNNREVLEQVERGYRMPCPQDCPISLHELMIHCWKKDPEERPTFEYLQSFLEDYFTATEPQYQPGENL
On to `CC(=O)c1cccc(-c2cnc3ccc(-c4ccc(N)nc4)nn23)c1` [Compound 377, 1-[3-[6-(6-amino-3-pyridyl)imidazo[1,2-b]pyridazin-3-yl]phenyl] ethanone], for which the IC50 is 283 nM.
In the case of `OCc1ccc(-c2ccc3ncc(-c4cccs4)n3n2)cc1` [Compound 378, [4-[3-(2-thienyl)imidazo [1,2-b]pyridazin-6-yl]phenyl] methanol], the IC50 was 2360 nM.
Consider `COc1ccc(-c2cnc3ccc(-c4cccc(NS(C)(=O)=O)c4)nn23)cc1OC` [Compound 379, N-[3-[3-(3,4-dimethoxyphenyl)imidazo[1,2-b]pyridazin-6-yl]phenyl] methane-sulfonamide], for which the IC50 was determined as 703 nM.
The same measure for `CC(=O)c1cccc(-c2cnc3ccc(-c4cccc(C(N)=O)c4)nn23)c1` [Compound 380, 3-[3-(3-acetylphenyl)imidazo[1,2-b]pyridazin-6-yl]benzamide]: 519 nM.
Turning to `CS(=O)(=O)Nc1cccc(-c2ccc3ncc(-c4cccnc4)n3n2)c1` [Compound 381, N-[3-[3-(3-pyridyl)imidazo [1,2-b]pyridazin-6-yl]phenyl] methane-sulfonamide], the half-maximal inhibitory concentration (IC50) is 1410 nM.
With `Oc1cccc(-c2cnc3ccc(-c4ccncc4)nn23)c1` [Compound 382, 3-[6-(4-pyridyl)imidazo [1,2-b]pyridazin-3-yl]phenol], the IC50 stood at 203 nM.
As for `Oc1cccc(-c2cnc3ccc(-c4cccc5ncccc45)nn23)c1` [Compound 383, 3-[6-(5-quinolyl)imidazo [1,2-b]pyridazin-3-yl]phenol], the IC50 turned out to be 14600 nM.
As to `CS(=O)(=O)Nc1cccc(-c2ccc3ncc(-c4cccc(CO)c4)n3n2)c1` [Compound 384], the IC50 was 1150 nM.
Consider `COc1cc(-c2cnc3ccc(-c4ccccc4OC)nn23)ccc1O` [Compound 385, 2-methoxy-4-[6-(2-methoxy-phenyl)imidazo[1,2-b]pyridazin-3-yl]phenol], for which the IC50 stood at 959 nM.
Regarding `CNC(=O)c1cccc(-c2ccc3ncc(-c4cccc(C(C)=O)c4)n3n2)c1` [Compound 386, 3-[3-(3-acetylphenyl)imidazo[1,2-b]pyridazin-6-yl]-N-methyl-benzamide], the IC50 is 1720 nM.
On to `OCc1cccc(-c2ccc3ncc(-c4cccs4)n3n2)c1` [Compound 387, [3-[3-(2-thienyl)imidazo [1,2-b]pyridazin-6-yl]phenyl] methanol], for which the half-maximal inhibitory concentration (IC50) was 1680 nM.
For `Cn1cc(-c2ccc3ncc(-c4cccs4)n3n2)cn1` [Compound 388, 6-(1-methylpyrazol-4-yl)-3-(2-thienyl)imidazo [1,2-b]pyridazine], the IC50 is 1310 nM.
On to `COc1ccc(-c2cnc3ccc(-c4cccc(C(=O)NCCO)c4)nn23)cc1OC` [Compound 389, 3-[3-(3,4-dimethoxyphenyl)imidazo[1,2-a]pyridazin-6-yl]-N-(2-hydroxyethyl) benzamide], for which the IC50 worked out at 367 nM.
For the compound `Cn1cc(-c2ccc3ncc(-c4ccc5c(c4)OCO5)n3n2)cn1` [Compound 390, 3-(1,3-benzodioxol-5-yl)-6-(1-methylpyrazol-4-yl)imidazo[1,2-b]pyridazine], the IC50 stood at 956 nM.
As for `COc1ccc(-c2cnc3ccc(-c4cnn(C)c4)nn23)cc1OC` [Compound 391, 3-(3,4-dimethoxy-phenyl)-6-(1-methylpyrazol-4-yl)imidazo[1,2-b]pyridazine], the half-maximal inhibitory concentration (IC50) came out at 367 nM.
For `Oc1cccc(-c2cnc3ccc(-c4cccc(F)c4)nn23)c1` [Compound 392, 3-[6-(3-fluorophenyl)imidazo[1,2-b]pyridazin-3-yl]phenol], the IC50 is 2260 nM.
On to `CC(=O)c1cccc(-c2cnc3ccc(-c4cccc(N)c4)nn23)c1` [Compound 393, 1-[3-[6-(3-aminophenyl)imidazo[1,2-b]pyridazin-3-yl]phenyl] ethanone], for which the half-maximal inhibitory concentration (IC50) is 1120 nM.
Take `COc1ccccc1-c1ccc2ncc(-c3cccnc3)n2n1` [Compound 394, 6-(2-methoxy-phenyl)-3-(3-pyridyl)imidazo [1,2-b]pyridazine]: the IC50 was determined as 2350 nM.
